Where “and” joins values, the source holds several entries; their conditions need not be identical. Equal values may be shown once. Read-outs that look alike come from different tables or passages of the source.
Assay: Pharmacokinetics in humans, MRTX1133 formulation, oral, single and multiple doses
Format: in vivo
Settings: for AUC0-12 Accumulation Ratio, Geo Mean / Cmax Accumulation Ratio, Geo Mean / Peak to Trough Ratio, Geo Mean: geometric mean of subjects
Description: The pharmacokinetics [PK] of the MRTX1133 formulation after oral administration has been evaluated in 25 subjects across 3 escalating dose frequencies under fasting conditions (200 mg twice daily [BID], 400 mg BID, and 800 mg BID), as well as evaluation of 400 mg BID when administered with a low-fat meal (i.e., under fed conditions). The mean (+standard deviation) single-dose and multiple-dose pharmacokinetic profiles of the evaluated doses are presented in FIG. 9 and FIG. 10, respectively. Individual single- and multiple-dose PK profiles can be found in FIG. 11. For all figures, the X-axis represents nominal time of sample collection (hours [h]) and the Y-axis represents plasma concentration (ng/mL). Table 10 lists PK data following the oral administration of a single dose and multiple doses of MRTX1133 formulation by dose level and subject.

[1] = multiple oral doses of 200 mg BID, fasted
[2] = multiple oral doses of 200 mg BID, fasted, individual subjects
[3] = multiple oral doses of 400 mg BID with a low-fat meal
[4] = multiple oral doses of 400 mg BID with a low-fat meal, individual subjects
[5] = multiple oral doses of 400 mg BID, fasted
[6] = multiple oral doses of 400 mg BID, fasted, individual subjects
[7] = multiple oral doses of 800 mg BID, fasted, Geo Mean of subjects

`C#Cc1c(F)ccc2cc(O)cc(-c3ncc4c(N5C[C@H]6CC[C@@H](C5)N6)nc(OC[C@@]56CCCN5C[C@H](F)C6)nc4c3F)c12` [MRTX1133, 4-(4-((1R,5S)-3,8-diazabicyclo[3.2.1]octan-3-yl)-8-fluoro-2-(((2R,7aS)-2-fluorohexahydro-1Hpyrrolizin-7a-yl)methoxy)pyrido[4,3-d]pyrimidin-7-yl)-5-ethynyl-6-fluoronaphthalen-2-ol] showed a concentration at 0 h (human, plasma, po, 800 mg, single oral dose of 800 mg, fasted, 0 h, individual subjects, read-out: Plasma concentration) of 0 ng/mL, a concentration at 0.5 h (human, plasma, po, 800 mg, single oral dose of 800 mg, fasted, 0.5 h, mean of subjects, read-out: Plasma concentration, Mean) of 235 ng/mL and a concentration at 1 h (human, plasma, po, 800 mg, single oral dose of 800 mg, fasted, 1 h, mean of subjects, read-out: Plasma concentration, Mean) of 286 ng/mL. The concentration at 1.5 h (human, plasma, po, 800 mg, single oral dose of 800 mg, fasted, 1.5 h, mean of subjects, read-out: Plasma concentration, Mean) was 151 ng/mL, the concentration at 2 h (human, plasma, po, 800 mg, single oral dose of 800 mg, fasted, 2 h, mean of subjects, read-out: Plasma concentration, Mean) was 117 ng/mL and the concentration at 4 h (human, plasma, po, 800 mg, single oral dose of 800 mg, fasted, 4 h, mean of subjects, read-out: Plasma concentration, Mean) was 67.6 ng/mL. It also gave a concentration at 6 h (human, plasma, po, 800 mg, single oral dose of 800 mg, fasted, 6 h, mean of subjects, read-out: Plasma concentration, Mean) of 57.9 ng/mL, a concentration at 8 h (human, plasma, po, 800 mg, single oral dose of 800 mg, fasted, 8 h, mean of subjects, read-out: Plasma concentration, Mean) of 49.7 ng/mL and a concentration at 12 h (human, plasma, po, 800 mg, single oral dose of 800 mg, fasted, 12 h, mean of subjects, read-out: Plasma concentration, Mean) of 12.6 ng/mL. The concentration at 24 h (human, plasma, po, 800 mg, single oral dose of 800 mg, fasted, 24 h, mean of subjects, read-out: Plasma concentration, Mean) was 25.5 ng/mL, the AUC(0-t) (human, plasma, po, 800 mg, single oral dose of 800 mg, fasted, Geo Mean of subjects, read-out: AUC0-12) was 440 ng·h/mL and the AUC0-inf (human, plasma, po, 800 mg, single oral dose of 800 mg, fasted, Geo Mean of subjects, read-out: AUC0-inf) was 543 ng·h/mL. It also gave an AUC(0-t) (human, plasma, po, 800 mg, single oral dose of 800 mg, fasted, Geo Mean of subjects, read-out: AUC0-last) of 463 ng·h/mL, a Cmax (human, plasma, po, 800 mg, single oral dose of 800 mg, fasted, Geo Mean of subjects, read-out: Cmax) of 123 ng/mL and a Tmax (human, plasma, po, 800 mg, single oral dose of 800 mg, fasted, Median of subjects, read-out: Tmax) of 1.2 h. For the same compound, the “AUC0-12 Accumulation Ratio, Geo Mean” value [1] was 0.9, the “Cmax Accumulation Ratio, Geo Mean” value [1] was 0.6 and the “Peak to Trough Ratio, Geo Mean” value [1] was 12.3. For the same compound, the AUC0-12 [2] was 181 ng·h/mL and 84.0 ng·h/mL and 42.9 ng·h/mL and 115 ng·h/mL, the “AUC0-12 Accumulation Ratio” value [2] was 1.30 and 0.94 and 0.44 and 1.16 and the AUC0-last [2] was 181 ng·h/mL and 84.0 ng·h/mL and 42.9 ng·h/mL and 115 ng·h/mL and 31.9 ng·h/mL. The Cmax [2] was 85.0 ng/mL and 15.0 ng/mL and 49.4 ng/mL and 56.2 ng/mL and 17.1 ng/mL, the “Cmax Accumulation Ratio” value [2] was 0.73 and 0.71 and 0.85 and 1.26 and 0.14 and the “Peak to Trough Ratio” value [2] was 52.1 and 2.75 and 78.2 and 24.9 and 1.02. For the same compound, the Tlast [2] was 12 h (4×) and 2.0 h, the Tmax [2] was 0.5 h and the “AUC0-12 Accumulation Ratio, Geo Mean” value [3] was 1.7. The “Cmax Accumulation Ratio, Geo Mean” value [3] was 1.9, the “Peak to Trough Ratio, Geo Mean” value [3] was 12.9 and the AUC0-12 [4] was 1,475 ng · h/mL and 457 ng · h/mL and 107 ng · h/mL and 127 ng · h/mL. For the same compound, the “AUC0-12 Accumulation Ratio” value [4] was 2.61 and 1.50 and 2.52 and 0.75, the AUC0-last [4] was 1,475 ng · h/mL and 457 ng · h/mL and 107 ng · h/mL and 127 ng · h/mL and the Cmax [4] was 390 ng/mL and 250 ng/mL and 48.2 ng/mL and 23.0 ng/mL. For the same compound, the “Cmax Accumulation Ratio” value [4] was 4.69 and 2.66 and 1.71 and 0.63, the “Peak to Trough Ratio” value [4] was 7.25 and 84.7 and 10.6 and 4.27 and the Tlast [4] was 12 h. The Plasma concentration (multiple oral doses of 400 mg BID, fasted, 0.5 h, individual subjects) was 79.1 ng/mL and 58.5 ng/mL and 82.8 ng/mL and 83.0 ng/mL and 29.7 ng/mL and 23.6 ng/mL and 152 ng/mL, the Plasma concentration (multiple oral doses of 400 mg BID, fasted, 1 h, individual subjects) was 129 ng/mL and 31.5 ng/mL and 61.2 ng/mL and 38.4 ng/mL and 11.5 ng/mL and 44.7 ng/mL and 285 ng/mL and the Plasma concentration (multiple oral doses of 400 mg BID, fasted, 1.5 h, individual subjects) was 90.2 ng/mL and 28.5 ng/mL and 38.9 ng/mL and 32.3 ng/mL and 15.2 ng/mL and 38.0 ng/mL and 209 ng/mL. The Plasma concentration (multiple oral doses of 400 mg BID, fasted, 2 h, individual subjects) was 99.0 ng/mL and 27.2 ng/mL and 55.6 ng/mL and 23.4 ng/mL and 21.1 ng/mL and 30.0 ng/mL and 83.1 ng/mL, the Plasma concentration (multiple oral doses of 400 mg BID, fasted, 4 h, individual subjects) was 82.8 ng/mL and 11.0 ng/mL and 115 ng/mL and 23.8 ng/mL and 5.34 ng/mL and 233 ng/mL and 70.5 ng/mL and the Plasma concentration (multiple oral doses of 400 mg BID, fasted, 6 h, individual subjects) was 189 ng/mL and 2.51 ng/mL and 45.3 ng/mL and 10.7 ng/mL and 4.38 ng/mL and 148 ng/mL and 43.8 ng/mL. The Plasma concentration (multiple oral doses of 400 mg BID, fasted, 8 h, individual subjects) was 88.9 ng/mL and 2.27 ng/mL and 33.3 ng/mL and 8.36 ng/mL and 3.68 ng/mL and 110 ng/mL and 35.5 ng/mL, the Plasma concentration (multiple oral doses of 400 mg BID, fasted, 12 h, individual subjects) was 76.9 ng/mL and 2.76 ng/mL and 31.2 ng/mL and 6.42 ng/mL and 3.71 ng/mL and 42.1 ng/mL and 31.3 ng/mL and the “AUC0-12 Accumulation Ratio, Geo Mean” value [5] was 1.6. The “Cmax Accumulation Ratio, Geo Mean” value [5] was 1.3, the “Peak to Trough Ratio, Geo Mean” value [5] was 11.1 and the AUC0-12 [6] was 1,237 ng · h/mL and 128 ng · h/mL and 640 ng · h/mL and 211 ng · h/mL and 89.4 ng · h/mL and 1,239 ng · h/mL and 821 ng · h/mL. For the same compound, the “AUC0-12 Accumulation Ratio” value [6] was 3.02 and 1.35 and 5.02 and 1.40 and 0.76 and 0.73 and 1.41, the AUC0-last [6] was 1,237 ng · h/mL and 128 ng · h/mL and 640 ng · h/mL and 211 ng · h/mL and 89.4 ng · h/mL and 1,239 ng · h/mL and 821 ng · h/mL and the Cmax [6] was 189 ng/mL and 58.5 ng/mL and 115 ng/mL and 83.0 ng/mL and 29.7 ng/mL and 233 ng/mL and 285 ng/mL. The “Cmax Accumulation Ratio” value [6] was 3.04 and 0.94 and 1.73 and 1.17 and 0.80 and 0.83 and 1.52, the “Peak to Trough Ratio” value [6] was 3.30 and 101 and 3.47 and 9.10 and 6.32 and 23.7 and 13.4 and the Tlast [6] was 12 h. For the same compound, the Tmax [6] was 6.0 h and 0.5 h (3×), the “AUC0-12 Accumulation Ratio” value [7] was 1.0 and the “Cmax Accumulation Ratio” value [7] was 0.8. For the same compound, the “Peak to Trough Ratio” value [7] was 9.6.
